Experiments:
Human melanocortin (MC5) = biological target: T1, Human melanocortin (MC5) (Homo sapiens, UniProt P33032); assay: Radioligand binding, human melanocortin MC5 membranes, FlashPlate, [125I]-NDP-αMSH; settings: compound at 10 μM; [125I]-NDP-αMSH
T1 construct: purchased Perkin Elmer Biosignal
Description: (§1) Cloned receptor membrane preparations from Perkin Elmer Biosignal™ were used in radioligand binding assays.
(§2) A1 Human δ-opioid (DOP), A2 Human κ-Opioid (KOP), A3 Human Melanocortin (MC3), A4 Human Melanocortin (MC4), A5 Human melanocortin (MC5), A6 Human melanin-concentrating hormone (MCH1), A7 Human μ-opioid (MOP), A8 Human neurokinin (NK1), A9 Human neuropeptide Y (NPY-Y1), A10 Human opioid (ORL1) A11 Mouse urotensin (mUR2)
(§3) Screening experiments were performed in either a 50 μl filtration or 25 μl FlashPlate assay format using the following protocol:
(§4) 19.5 μl buffer, 0.5 μl of compound diluted in DMSO, 5 μl of radioligand diluted in binding buffer.
(§5) The day prior to performing the experiment 50 μl DMSO was added to each well of the compound plates to yield compounds at a final concentration of 10 mM. Daughter plates were then created by diluting the compounds further in DMSO to a concentration of 0.5 mM. The mother plates were frozen immediately.
(§6) Immobilize membranes into FlashPlate microplates using PerkinElmer BioSignal's proprietary coating procedure. Dilute radioligand to 5× the final concentration in binding buffer. Add 19.5 μl buffer to each well of the FlashPlate. Add 0.5 μl of DMSO (total value, 5 wells), reference ligand (non-specific value, 3 wells) or compound to the corresponding wells in the FlashPlate microplate. Initiate the reaction by adding 5 μl of radioligand to each well. Apply TopSeal-A onto FlashPlate microplates. Incubate at room temperature for 1 hour in the dark. Count for 30 seconds per well on TopCount Microplate Scintillation and Luminescence Counter (PerkinElmer) using a count delay of 60 seconds.
(§7) Percentage inhibition was calculated using the following formula: [formula]

Human Melanocortin (MC3) = biological target: T2, Human Melanocortin (MC3) (Homo sapiens, UniProt P41968); assay: Radioligand binding, human melanocortin MC3 membranes, FlashPlate, [125I]-NDP-αMSH; settings: compound at 10 μM; [125I]-NDP-αMSH
T2 construct: purchased Perkin Elmer Biosignal
T2 sequence (P41968 whole entry): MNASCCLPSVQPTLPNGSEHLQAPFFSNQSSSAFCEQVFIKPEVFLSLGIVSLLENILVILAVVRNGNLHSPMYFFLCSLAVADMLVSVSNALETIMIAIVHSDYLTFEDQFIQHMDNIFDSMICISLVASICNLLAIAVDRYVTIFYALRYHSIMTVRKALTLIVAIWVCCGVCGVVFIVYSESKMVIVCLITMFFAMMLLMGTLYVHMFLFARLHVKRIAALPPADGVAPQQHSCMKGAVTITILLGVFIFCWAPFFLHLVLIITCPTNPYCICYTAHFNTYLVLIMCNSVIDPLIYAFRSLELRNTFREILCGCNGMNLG
Description: as §1, §2, §3, §4, §5, §6, §7

Human δ-opioid (DOP) = biological target: T3, Human δ-opioid (DOP) (Homo sapiens, UniProt P41143); assay: Radioligand binding, human δ-opioid (DOP) membranes, FlashPlate, [3H]-Bremazocine; settings: compound at 10 μM; [3H]-Bremazocine
T3 construct: purchased Perkin Elmer Biosignal
T3 sequence (P41143 whole entry): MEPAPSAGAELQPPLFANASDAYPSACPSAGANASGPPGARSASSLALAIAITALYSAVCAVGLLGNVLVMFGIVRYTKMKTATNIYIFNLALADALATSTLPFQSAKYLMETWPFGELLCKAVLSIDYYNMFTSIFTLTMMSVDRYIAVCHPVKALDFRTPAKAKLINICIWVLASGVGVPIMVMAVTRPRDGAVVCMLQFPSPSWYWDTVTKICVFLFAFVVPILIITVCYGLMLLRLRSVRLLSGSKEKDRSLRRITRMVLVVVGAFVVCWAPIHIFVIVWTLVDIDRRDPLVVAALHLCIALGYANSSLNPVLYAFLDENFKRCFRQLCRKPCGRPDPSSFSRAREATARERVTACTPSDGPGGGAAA
Description: as §1, §2, §3, §4, §5, §6, §7

Human Melanocortin (MC4) = biological target: T4, Human Melanocortin (MC4) (Homo sapiens, UniProt P32245); assay: Radioligand binding, human melanocortin MC4 membranes, FlashPlate, [125I]-NDP-αMSH; settings: compound at 10 μM; [125I]-NDP-αMSH
T4 construct: purchased Perkin Elmer Biosignal
T4 sequence (P32245 whole entry): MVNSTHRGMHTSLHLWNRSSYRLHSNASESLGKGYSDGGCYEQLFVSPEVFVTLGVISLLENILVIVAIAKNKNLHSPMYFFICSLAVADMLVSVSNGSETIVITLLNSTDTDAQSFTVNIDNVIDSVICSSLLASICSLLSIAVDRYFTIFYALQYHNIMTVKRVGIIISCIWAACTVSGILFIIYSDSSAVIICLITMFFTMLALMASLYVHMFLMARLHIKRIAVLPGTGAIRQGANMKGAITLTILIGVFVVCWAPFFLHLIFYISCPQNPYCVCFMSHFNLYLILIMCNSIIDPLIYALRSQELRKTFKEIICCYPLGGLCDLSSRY
Description: as §1, §2, §3, §4, §5, §6, §7

[1] = biological target: T5, Human neuropeptide Y (NPY-Y1) (Homo sapiens, UniProt P25929); assay: Radioligand binding, human neuropeptide Y NPY-Y1 membranes, FlashPlate, [125I]-PYY; settings: compound at 10 μM; [125I]-PYY
T5 construct: purchased Perkin Elmer Biosignal
T5 sequence (P25929 1-384): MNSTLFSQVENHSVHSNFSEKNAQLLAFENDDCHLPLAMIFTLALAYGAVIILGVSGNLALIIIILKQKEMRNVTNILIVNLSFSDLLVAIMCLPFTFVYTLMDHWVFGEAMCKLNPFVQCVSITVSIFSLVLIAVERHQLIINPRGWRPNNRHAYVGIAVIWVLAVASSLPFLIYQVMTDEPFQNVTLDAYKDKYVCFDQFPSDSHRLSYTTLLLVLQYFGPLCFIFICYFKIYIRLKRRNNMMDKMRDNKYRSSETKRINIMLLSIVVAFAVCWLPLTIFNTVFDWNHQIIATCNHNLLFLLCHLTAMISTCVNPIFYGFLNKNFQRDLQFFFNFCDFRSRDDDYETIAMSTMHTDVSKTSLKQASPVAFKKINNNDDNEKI
Description: as §1, §2, §3, §4, §5, §6, §7

Human opioid (ORL1) = biological target: T6, Human opioid (ORL1) (Homo sapiens, UniProt P41146); assay: Radioligand binding, human opioid ORL1 membranes, FlashPlate, [125I]-Nociceptin; settings: compound at 10 μM; [125I]-Nociceptin
T6 construct: purchased Perkin Elmer Biosignal
T6 sequence (P41146 whole entry): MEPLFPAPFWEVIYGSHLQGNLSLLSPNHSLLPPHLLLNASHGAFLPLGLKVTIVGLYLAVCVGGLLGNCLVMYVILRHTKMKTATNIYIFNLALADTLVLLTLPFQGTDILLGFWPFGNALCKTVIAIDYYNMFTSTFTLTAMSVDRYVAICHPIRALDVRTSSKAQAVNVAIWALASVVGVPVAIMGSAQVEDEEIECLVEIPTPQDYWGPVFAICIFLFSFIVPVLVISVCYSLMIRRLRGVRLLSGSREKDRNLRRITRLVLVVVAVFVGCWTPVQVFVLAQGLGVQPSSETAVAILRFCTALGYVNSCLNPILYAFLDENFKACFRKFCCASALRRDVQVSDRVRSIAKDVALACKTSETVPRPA
Description: as §1, §2, §3, §4, §5, §6, §7

Human neurokinin (NK1) = biological target: T7, Human neurokinin (NK1) (Homo sapiens, UniProt P25103); assay: Radioligand binding, human neurokinin NK1 membranes, filtration, [125I]-Substance P; settings: compound at 10 μM; [125I]-Substance P
T7 construct: purchased Perkin Elmer Biosignal
T7 sequence (P25103 whole entry): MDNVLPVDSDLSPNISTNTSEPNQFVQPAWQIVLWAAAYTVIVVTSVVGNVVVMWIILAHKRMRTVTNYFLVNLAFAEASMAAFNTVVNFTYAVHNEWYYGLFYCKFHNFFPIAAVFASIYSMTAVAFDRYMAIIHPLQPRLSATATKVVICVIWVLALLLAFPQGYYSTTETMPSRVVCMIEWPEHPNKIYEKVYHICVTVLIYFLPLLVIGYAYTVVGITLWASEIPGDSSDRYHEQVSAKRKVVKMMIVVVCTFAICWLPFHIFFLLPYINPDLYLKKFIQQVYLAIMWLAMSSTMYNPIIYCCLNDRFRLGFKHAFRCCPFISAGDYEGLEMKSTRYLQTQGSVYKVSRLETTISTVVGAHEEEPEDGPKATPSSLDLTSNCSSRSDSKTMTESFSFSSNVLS
Description: as §1, §2, §3
(§8) 44 μl membranes diluted in buffer, 1 μl of compound diluted in DMSO, 5 μl of radioligand diluted in binding buffer.
as §5
(§9) Thaw membranes on ice then dilute membranes in binding buffer at a concentration of 1 Unit per well. Dilute radio-ligand to 10 times the final concentration in binding buffer. Add 44 μl of diluted membranes to each well of the deep-well plate. Add 1 μl of DMSO (total value, 5 wells), reference ligand (non-specific value, 3 wells) or compound to the corresponding wells in the deep-well plate. Initiate the reaction by adding 5 μl of radioligand to each well and vortex gently. Incubate at room temperature for 1 hour. During incubation, pre-incubate the Multiscreen Harvest plates in 0.3% PEI. Filter over pre-soaked Multiscreen Harvest plates using a Tomtec Harvester. Wash 9 times with 500 μl of cold 50 mM Tris-HCl pH 7.4 at 4° C. and air-dry for 30 minutes at room temperature under a fume hood. Apply a bottom seal to the Multiscreen Harvest plates. Add 25 μl of MicroScint-0 to each well. Apply TopSeal-A to the plate. Count for 30 seconds per well on TopCount Microplate Scintillation and Luminescence Counter (PerkinElmer) using a count delay of 60 seconds.
as §7

Human μ-opioid (MOP) = biological target: T8, Human μ-opioid (MOP) (Homo sapiens, UniProt P35372); assay: Radioligand binding, human μ-opioid (MOP) membranes, FlashPlate, [3H]-Naloxone; settings: compound at 10 μM; [3H]-Naloxone
T8 construct: purchased Perkin Elmer Biosignal
T8 sequence (P35372 whole entry): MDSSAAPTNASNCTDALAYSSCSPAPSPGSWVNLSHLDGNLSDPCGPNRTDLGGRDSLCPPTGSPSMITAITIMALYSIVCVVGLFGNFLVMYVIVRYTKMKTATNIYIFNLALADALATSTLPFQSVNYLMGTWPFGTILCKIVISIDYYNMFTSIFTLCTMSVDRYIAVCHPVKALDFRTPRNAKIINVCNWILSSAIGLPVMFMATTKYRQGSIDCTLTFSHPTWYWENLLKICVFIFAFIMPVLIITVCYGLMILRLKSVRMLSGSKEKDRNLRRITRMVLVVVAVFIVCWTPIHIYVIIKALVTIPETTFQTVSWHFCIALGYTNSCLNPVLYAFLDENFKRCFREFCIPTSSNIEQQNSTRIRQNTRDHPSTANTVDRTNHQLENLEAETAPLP
Description: as §1, §2, §3, §4, §5, §6, §7

Mouse urotensin (mUR2) = biological target: T9, Mouse urotensin (mUR2) (Mus musculus, UniProt Q8VIH9); assay: Radioligand binding, mouse urotensin mUR2 membranes, FlashPlate, [125I]-Urotensin II; settings: compound at 10 μM; [125I]-Urotensin II
T9 construct: purchased Perkin Elmer Biosignal
T9 sequence (Q8VIH9 1-385): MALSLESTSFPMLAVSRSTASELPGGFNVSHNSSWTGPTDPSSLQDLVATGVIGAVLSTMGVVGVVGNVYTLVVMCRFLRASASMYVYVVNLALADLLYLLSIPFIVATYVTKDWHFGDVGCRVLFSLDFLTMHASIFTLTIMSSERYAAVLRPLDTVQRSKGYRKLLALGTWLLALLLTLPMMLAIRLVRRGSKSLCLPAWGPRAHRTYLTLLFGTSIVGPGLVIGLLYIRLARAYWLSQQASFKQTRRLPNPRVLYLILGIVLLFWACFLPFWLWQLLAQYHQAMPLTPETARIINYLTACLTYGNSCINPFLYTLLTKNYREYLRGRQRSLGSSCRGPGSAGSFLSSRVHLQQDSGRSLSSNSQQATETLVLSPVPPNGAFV
Description: as §1, §2, §3, §4, §5, §6, §7

Human κ-Opioid (KOP) = biological target: T10, Human κ-Opioid (KOP) (Homo sapiens, UniProt P41145); assay: Radioligand binding, human κ-opioid (KOP) membranes, filtration, [3H]-Diprenorphine; settings: compound at 10 μM; [3H]-Diprenorphine
T10 construct: purchased Perkin Elmer Biosignal
T10 sequence (P41145 whole entry): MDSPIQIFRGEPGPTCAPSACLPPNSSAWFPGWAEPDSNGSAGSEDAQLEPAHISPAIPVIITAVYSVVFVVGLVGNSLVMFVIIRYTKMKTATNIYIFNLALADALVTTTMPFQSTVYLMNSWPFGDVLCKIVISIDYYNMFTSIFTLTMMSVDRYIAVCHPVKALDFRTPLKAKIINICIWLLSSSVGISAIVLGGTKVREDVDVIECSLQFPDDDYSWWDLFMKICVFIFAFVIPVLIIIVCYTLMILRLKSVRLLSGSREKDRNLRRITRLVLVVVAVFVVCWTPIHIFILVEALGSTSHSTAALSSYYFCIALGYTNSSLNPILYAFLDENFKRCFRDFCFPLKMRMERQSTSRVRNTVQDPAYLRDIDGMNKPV
Description: as §1, §2, §3, §8, §5, §9, §7

[2] = biological target: T11, Human melanin-concentrating hormone (MCH1) (Homo sapiens, UniProt Q99705); assay: Radioligand binding, human melanin-concentrating hormone MCH1 membranes, FlashPlate, [125I]-S36057; settings: compound at 10 μM; [125I]-S36057
T11 construct: purchased Perkin Elmer Biosignal
T11 sequence (Q99705 whole entry): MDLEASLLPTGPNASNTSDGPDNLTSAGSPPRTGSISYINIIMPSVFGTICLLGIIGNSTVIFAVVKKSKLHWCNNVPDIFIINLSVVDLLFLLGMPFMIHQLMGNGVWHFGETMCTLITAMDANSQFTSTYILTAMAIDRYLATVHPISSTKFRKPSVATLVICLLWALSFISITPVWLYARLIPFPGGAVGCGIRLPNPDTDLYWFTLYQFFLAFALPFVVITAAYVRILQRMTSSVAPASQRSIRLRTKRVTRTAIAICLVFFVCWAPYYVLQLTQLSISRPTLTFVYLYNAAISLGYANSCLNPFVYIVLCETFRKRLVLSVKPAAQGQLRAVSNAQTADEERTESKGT
Description: as §1, §2, §3, §4, §5, §6, §7

T1 sequence (P33032 whole entry): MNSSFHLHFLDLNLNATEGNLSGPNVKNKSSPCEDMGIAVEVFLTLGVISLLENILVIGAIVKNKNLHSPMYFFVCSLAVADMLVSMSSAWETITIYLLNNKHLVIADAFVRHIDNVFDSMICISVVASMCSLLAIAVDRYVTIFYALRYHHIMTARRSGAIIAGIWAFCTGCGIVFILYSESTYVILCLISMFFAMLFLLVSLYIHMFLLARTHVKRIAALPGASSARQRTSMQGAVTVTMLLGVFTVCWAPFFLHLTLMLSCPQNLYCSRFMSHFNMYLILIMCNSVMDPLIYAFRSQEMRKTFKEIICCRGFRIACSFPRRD

SMILES | A5 radioligand binding, percentage inhibition (Human melanocortin (MC5)) | A3 radioligand binding, percentage inhibition (Human Melanocortin (MC3)) | A1 radioligand binding, percentage inhibition (Human δ-opioid (DOP)) | A4 radioligand binding, percentage inhibition (Human Melanocortin (MC4)) | A9 radioligand binding, percentage inhibition [1] | A10 radioligand binding, percentage inhibition (Human opioid (ORL1)) | A8 radioligand binding, percentage inhibition (Human neurokinin (NK1)) | A11 radioligand binding, percentage inhibition (Mouse urotensin (mUR2)) | A2 radioligand binding, percentage inhibition (Human κ-Opioid (KOP)) | A6 radioligand binding, percentage inhibition [2] | other results
CO[C@H]1[C@H](O)[C@@H](COCc2ccc(Cl)cc2)OC(OCCc2ccccc2)[C@@H]1NC(=O)CNC(=N)N (some centres unmarked) [compound 119] | − (“−” indicates less than 50% inhibition at 10 μM) | − (“−” indicates less than 50% inhibition at 10 μM) | − (“−” indicates less than 50% inhibition at 10 μM) | − (“−” indicates less than 50% inhibition at 10 μM) | − (“−” indicates less than 50% inhibition at 10 μM) | − (“−” indicates less than 50% inhibition at 10 μM) | + (“+” indicates greater than 50% inhibition at 10 μM) | − (“−” indicates less than 50% inhibition at 10 μM) | − (“−” indicates less than 50% inhibition at 10 μM) | − (“−” indicates less than 50% inhibition at 10 μM) | A7 radioligand binding, percentage inhibition (Human μ-opioid (MOP)): − (“−” indicates less than 50% inhibition at 10 μM)
NCCCC(=O)NC1C(OCc2ccccc2)OC(COCc2ccc3ccccc3c2)C(O)C1OCc1ccccc1 (centres unmarked) [compound 378] |  |  |  |  |  |  |  |  |  |  | A5: inhibition of radioligand binding, human melanocortin (MC5) (Human melanocortin (MC5)): + (“+” indicates greater than 50% inhibition at 10 μM); A3: inhibition of radioligand binding, human melanocortin (MC3) (Human Melanocortin (MC3)): − (“−” indicates less than 50% inhibition at 10 μM); A1: inhibition of radioligand binding, human δ-opioid (DOP) (Human δ-opioid (DOP)): − (“−” indicates less than 50% inhibition at 10 μM); A4: inhibition of radioligand binding, human melanocortin (MC4) (Human Melanocortin (MC4)): + (“+” indicates greater than 50% inhibition at 10 μM); A9: inhibition of radioligand binding, human neuropeptide Y (NPY-Y1) [1]: − (“−” indicates less than 50% inhibition at 10 μM); A10: inhibition of radioligand binding, human opioid (ORL1) (Human opioid (ORL1)): − (“−” indicates less than 50% inhibition at 10 μM); A8: inhibition of radioligand binding, human neurokinin (NK1) (Human neurokinin (NK1)): + (“+” indicates greater than 50% inhibition at 10 μM); A7: inhibition of radioligand binding, human μ-opioid (MOP) (Human μ-opioid (MOP)): − (“−” indicates less than 50% inhibition at 10 μM); A11: inhibition of radioligand binding, mouse urotensin (mUR2) (Mouse urotensin (mUR2)): − (“−” indicates less than 50% inhibition at 10 μM); A2: inhibition of radioligand binding, human κ-opioid (KOP) (Human κ-Opioid (KOP)): − (“−” indicates less than 50% inhibition at 10 μM); A6: inhibition of radioligand binding, human melanin-concentrating hormone (MCH1) [2]: − (“−” indicates less than 50% inhibition at 10 μM)
COC[C@H]1OC(OCc2ccc(-c3ccccc3)cc2)[C@H](NC(=O)CCCN)[C@@H](OCc2cccc(O)c2)[C@@H]1O (some centres unmarked) [compound 131] | − (“−” indicates less than 50% inhibition at 10 μM) | − (“−” indicates less than 50% inhibition at 10 μM) | − (“−” indicates less than 50% inhibition at 10 μM) | − (“−” indicates less than 50% inhibition at 10 μM) | − (“−” indicates less than 50% inhibition at 10 μM) | − (“−” indicates less than 50% inhibition at 10 μM) | − (“−” indicates less than 50% inhibition at 10 μM) | − (“−” indicates less than 50% inhibition at 10 μM) | − (“−” indicates less than 50% inhibition at 10 μM) | + (“+” indicates greater than 50% inhibition at 10 μM) | 

From US20080009418A1, “Selective Inhibitors” (Alchemia LTD., priority 2004, published 2008)
